In patent US11542273B2, “Amide compound having bet proteolysis-inducing action and medicinal application thereof” (MITSUBISHI TANABE PHARMA CORPORATION, priority 2018, dated 2023):
Where two headings read alike, the source gives them in different places.

Tests used:
[1] = test system: human prostate cancer LNCaP cells; experiment: Cytotoxic action on cancer cells (WST-8, 96 hr); type: cell-based; conditions: Homo sapiens, LNCaP, 96 h, read-out: LNCaP cytotoxic activity: IC50
Summary of the method: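 Cells in 10% FBS/RPMI1640 were seeded, cultured overnight at 37 °C with 5% CO2, then exposed to compound for 96 hr. Viable cells were measured with WST-8 against compound-free controls. IC50 was interpolated linearly between the two concentrations bracketing 50% survival.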

[2] = molecular target: BRD4 protein (Homo sapiens (Human), UniProt O60885); experiment: BRD4 protein degradation inducing action in cancer cells (immunofluorescence, Operetta); type: cell-based; conditions: LNCaP cells, 6 hr treatment, fluorescence intensity
Summary of the method: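 LNCaP prostate cancer cells in 10% FBS/RPMI1640 were exposed to compound for 6 hr at 37° C, then fixed, permeabilized and immunostained for BRD4 with Alexa Fluor 488 or 546 secondary antibodies plus Hoechst nuclear stain. Fluorescence was read by high-content imaging; DC50 is the concentration giving 50% of untreated signal, interpolated linearly between bracketing points.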

[3] = test system: human acute myeloid leukemia MV-4-11 cell transplanted mouse; experiment: Antitumor effect in human acute myeloid leukemia MV-4-11 cell transplanted mouse; type: in vivo; conditions: MV4-11, iv, 360 h
Procedure: The in vivo antitumor effect of the compound of the present invention was studied using human acute myeloid leukemia MV-4-11 cell transplanted mouse. MV-4-11 cells were subcutaneously transplanted into the inguinal region of male, 6-week-old BALB/c nude mouse (5×10^6 cells/mouse). The compound of the present invention was administered into the tail vein on days 1, 5, 9, 13 from the time point when the assumed tumor volume determined from 1/2ab^2 (a is major axis and b is minor axis of tumor) reached about 100 mm^3 (day 1). The control group was administered with a solvent, 10% hydroxypropyl-β-cyclodextrin solution. On day 15, the tumor was isolated, the weight was measured, and the tumor growth inhibitory rate IR (%) was calculated by the following formula. tumor growth inhibitory rate IR (%)=(1−tumor weight of administration group/tumor weight of nonadministration control group)×100

[4] = read-out: tumor growth inhibitory rate

Compound	IC50 [1]	DC50 [2]	inhibition in vivo at 0.3 mg/kg ([3]; dose 0.3 mg/kg/day, tail vein on days 1, 5, 9, 13, tumor weight on day 15, read-out: tumor growth inhibitory rate)	inhibition in vivo at 3 mg/kg [3, 4]	inhibition in vivo at 0.3 mg/kg [3, 4]
COC(=O)N[C@@H]1N=C(c2ccc(-c3ccc(OCC(=O)N[C@H](C(=O)N4C[C@H](O)C[C@H]4C(=O)N[C@@H](C)c4ccc(-c5scnc5C)cc4)C(C)(C)C)cc3)cc2)c2c(sc(C)c2C)-n2c(C)nnc21 [Example 31, methyl [(6R)-4-{4′-[2-({(2S)-1-[(2S,4R)-4-hydroxy-2-({(1S)-1-[4-(4-methyl-1,3-thiazol-5-yl)phenyl]ethyl}carbamoyl)pyrrolidin-1-yl]-3,3-dimethyl-1-oxobutan-2-yl}amino)-2-oxoethoxy][1,1′-biphenyl]-4-yl}-2,3,9-trimethyl-6H-thieno[3,2-f][1,2,4]triazolo[4,3-a][1,4]diazepin-6-yl]carbamate]	0.039 nM	0.062 nM	95.6%	–	–
COC(=O)C[C@@H]1N=C(c2ccc(-c3ccc4oc(C(=O)N[C@H](C(=O)N5C[C@H](O)C[C@H]5C(=O)N[C@@H](C)c5ccc(-c6scnc6C)cc5)C(C)(C)C)nc4c3)cc2)c2c(sc(C)c2C)-n2c(C)nnc21 [Example 101, methyl [(6S)-4-{4-[2-({(2S)-1-[(2S,4R)-4-hydroxy-2-({(1S)-1-[4-(4-methyl-1,3-thiazol-5-yl)phenyl]ethyl}carbamoyl)pyrrolidin-1-yl]-3,3-dimethyl-1-oxobutan-2-yl}carbamoyl)-1,3-benzoxazol-5-yl]phenyl}-2,3,9-trimethyl-6H-thieno[3,2-f][1,2,4]triazolo[4,3-a][1,4]diazepin-6-yl]acetate]	0.059 nM	0.052 nM	–	98.2%	–
COC(=O)C[C@@H]1N=C(c2ccc(-c3ccc(C(=O)N[C@H](C(=O)N4C[C@H](O)C[C@H]4C(=O)N[C@@H](C)c4ccc(-c5scnc5C)cc4)C(C)(C)C)cc3F)cc2)c2c(sc(C)c2C)-n2c(C)nnc21 [Example 62, methyl {(6S)-4-[2′-fluoro-4′-({(2S)-1-[(2S,4R)-4-hydroxy-2-({(1S)-1-[4-(4-methyl-1,3-thiazol-5-yl)phenyl]ethyl}carbamoyl)pyrrolidin-1-yl]-3,3-dimethyl-1-oxobutan-2-yl}carbamoyl) [1,1′-biphenyl]-4-yl]-2,3,9-trimethyl-6H-thieno[3,2-f][1,2,4]triazolo[4,3-a][1,4]diazepin-6-yl}acetate]	0.26 nM	0.24 nM	–	97.4%	95.6%
